Assay [1] deals with T1, CRAC channel (endogenous SOC in HEK293 cells) (Homo sapiens, UniProt Q96D31).
T1 construct: host or cells: HEK293
Briefly: HEK Calcium Influx Assay (FLIPR). Format: cell-based. As to conditions: 10 μM compound, thapsigargin store depletion, Ca2+ signal 9.5-10 min post-administration, read-out: % inhib. [@ 10 μM] FLIPR. The procedure:
Compounds of the invention have been tested for their effects on CRAC channels according to the following or similar procedures.
The effect of compounds of the invention on intracellular [Ca^2+] was tested in the HEK293 cell line (ECACC).
HEK293 cells were cultured in DMEM/F12/Glutamax (Gibco) containing 10% FCS (Gibco), and maintained at 37° C., 5% CO2. Cell were split twice a week [3·10^6 (Mon-Thu) and 1·10^6 (Thu-Mon) cells/50 ml medium in T-175 ZK culture flasks, respectively]. 24 hours pre-experiment, cells were seeded on 96 well plates (Poly-D-Lysine 96well Black/Clear Plate, BD Biocoat REF 356640) at a density of 40,000 cells/well in DMEM/F12 (Gibco) containing 10% FCS (Gibco), and maintained at 37° C., 5% CO2.
Prior to store-depletion, cell culture medium was removed and cells were loaded with the a Ca^2+-sensitive fluorescent dye comprised within the Calcium-4-assay kit (Molecular Devices) in nominally Ca^2+-free HBS buffer (140 mM NaCl, 4 mM KCl, 0.2 mM MgCl2, 11 mM D-glucose, and 10 mM HEPES, pH 7.4) according to manufacturer's instruction for 60 min at 37° C., 5% CO2.
Passive depletion of intracellular Ca^2+-stores was then triggered by employing the SERCA inhibitor thapsigargin (2 μM final) for 10 min in the dark (rt). To prevent immediate Ca^2+-entry via the activated Store-operated channels (SOCs), cells were maintained in Ca^2+-free HBS buffer comprising 100 μM EGTA during store-depletion.
Intracellular changes in [Ca^2+] were subsequently monitored with the FLIPR device (Molecular Devices). In brief, baseline imaging post-store depletion was allowed for 1 min before adjusting the extracellular buffer to 3 mM CaCl2. Increases in intracellular [Ca^2+] due to pre-activated SOC channels were monitored for 15 min until intracellular Ca^2+ levels had declined into a steady-state. Finally, compounds were administered and Ca^2+ signals were recorded for additional 10 min.
Inhibition of endogenous SOC in HEK293 cells was quantified employing the average Ca^2+ signal measured from 9.5-10 min post-administration. Zero percent inhibition (MAX) was defined as the Ca^2+ signal recorded from wells to which DMSO-only had been added instead of compound. Hundred percent inhibition (MIN) was defined as the signal obtained from wells in which cells haven't been treated with TG prior to Ca^2+ addition and to which DMSO-only had been added instead of compound. For routine IC50 determinations of compounds, 8 concentrations of a serial dilution (1:3.16) were tested, starting off from 10 μM. Reliable IC50's could consequently be determined only, if they were at least sub 2.5-3 μM.

For assay [2], the system named is Interleukin-2 (IL-2) production/release in Jurkat T cell line clone E6-1. Kind of assay: Jurkat IL-2 Production Assay. Format: cell-based. As to conditions: Homo sapiens; Jurkat T cells stimulated with 15 μg/ml PHA for 22 hours; IL-2 in supernatant (AlphaLisa). The procedure:
Jurkat IL-2 Production Assay
The effect of compounds of the invention on Interleukin-2 (IL-2) production/release was tested in the Jurkat T cell line (ECACC) clone E6-1.
Jurkat T cells were cultured in DMEM/F12/Glutamax (Gibco) containing 10% FCS (Gibco), and maintained at 37° C., 5% CO2. Cells were split twice a week [5·10^6 (Mon-Thu) and 1·10^7 (Thu-Mon) cells/50 ml medium in T-175 ZK culture flasks, respectively].
Prior to experiment, cells were seeded on 96 well plates (Cellstar 96 Well; Cat No. 655180, Greiner bio-one) at a density of 5·10^5 cells/well in DMEM/F12/Glutamax (Gibco) containing 10% FCS (Gibco), and incubated for 60 min at 37° C., 5% CO2. Subsequently, compounds were added and cells were allowed to incubate for 30 min at 37° C., 5% CO2. Cells were then stimulated with 15 μg/ml Phyto-hemagglutinin (PHA; Sigma) for 22 hours at 37° C., 5% CO2.
Before sampling of the supernatants, cells were spun down (200*g/5 min/RT). The amount of IL-2 released into the supernatant was quantified with the human IL-2 AlphaLisa kit (Perkin Elmer) according to manufacturer's instructions. Luminescence proximity measurements were carried out in the Synergy H4 reader (BioTek) employing the fluorescence setting of the reader (ex: 680/30 nm; em: 620/40 nm).
Inhibition of IL-Production/Release in/from Jurkat T Cells Cells was Quantified as Follows:
Zero percent inhibition (MAX) was defined as the [IL-2] determined in supernatants derived from cells to which PHA & DMSO-only had been added instead of compound. Hundred percent inhibition (MIN) was defined as the [IL-2] determined in supernatants derived from cells that had been pre-treated with 1 μM CyclosporineA (Sigma) before the addition of 15 μg/ml PHA.
For routine IC50 determinations of compounds, 8 concentrations of a serial dilution (1:3.16) were tested, starting off from 10 μM.

T1 sequence (Q96D31 whole entry): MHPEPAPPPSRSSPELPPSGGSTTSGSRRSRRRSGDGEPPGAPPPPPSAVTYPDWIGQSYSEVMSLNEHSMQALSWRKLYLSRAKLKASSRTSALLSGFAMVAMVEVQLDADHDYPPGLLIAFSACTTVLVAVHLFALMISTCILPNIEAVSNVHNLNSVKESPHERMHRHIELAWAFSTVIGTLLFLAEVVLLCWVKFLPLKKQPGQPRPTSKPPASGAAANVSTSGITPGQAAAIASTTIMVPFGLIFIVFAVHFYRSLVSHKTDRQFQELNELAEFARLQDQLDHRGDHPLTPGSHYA

With `Cc1ccc(-c2nccs2)cc1-c1cc(C(=O)Nc2ccncc2F)nn1C` [Example 1, N-(3-Fluoro-pyridin-4-yl)-1-methyl-5-(2-methyl-5-thiazol-2-yl-phenyl)-1H-pyrazole-3-carboxylic acid amide], the inhibition at 10 µM in assay [1] was more than 70%. In assay [2], the IC50 (usually the point on the concentration scale where inhibition reaches its midpoint) lay in the range of 1 to 5 µM.

In the case of `Cc1ccc(-c2ncco2)cc1-c1cc(C(=O)Nc2ccncc2F)nn1C` [Example 2, N-(3-Fluoro-pyridin-4-yl)-1-methyl-5-(2-methyl-5-oxazol-2-yl-phenyl)-1H-pyrazole-3-carboxylic acid amide], the inhibition at 10 µM in assay [1] is 50 to 70%.

On to `Cc1ccc(-c2nccs2)cc1-c1cc(C(=O)Nc2c(F)cccc2F)nn1C` [Example 3, N-(2,6-Difluoro-phenyl)-1-methyl-5-(2-methyl-5-thiazol-2-yl-phenyl)-1H-pyrazole-3-carboxylic acid amide], for which the inhibition at 10 µM in assay [1] is less than 50%. Also, the IC50 in assay [2] was less than 0.5 µM.

As for `COc1ccc(NC(=O)c2cc(-c3cc(-c4nccs4)ccc3C)n(C)n2)cc1` [Example 4, N-(4-Methoxyphenyl)-1-methyl-5-(2-methyl-5-thiazol-2-yl-phenyl)-1H-pyrazole-3-carboxylic acid amide], in assay [1], the inhibition at 10 µM lay in the range of 50 to 70%. Moreover, the IC50 in assay [2] was in the range of 1 to 5 µM.

Consider `Cc1ccc(-c2nccs2)cc1-c1cc(C(=O)Nc2ccc(F)cc2)nn1C` [Example 5, N-(4-Fluorophenyl)-1-methyl-5-(2-methyl-5-thiazol-2-yl-phenyl)-1H-pyrazole-3-carboxylic acid amide], for which the inhibition at 10 µM in assay [1] was 50 to 70%. For the same compound, the IC50 in assay [2] fell in the range of 1 to 5 µM.

Turning to `Cc1cnccc1NC(=O)c1cc(-c2cc(-c3nccs3)ccc2C)n(C)n1` [Example 6, 1-Methyl-N-(3-methyl-pyridin-4-yl)-5-(2-methyl-5-thiazol-2-yl-phenyl)-1H-pyrazole-3-carboxylic acid amide], in assay [1], the inhibition at 10 µM lay in the range of 50 to 70%. Besides, the IC50 in assay [2] is 1 to 5 µM.

On to `COc1ccc(-c2nccs2)cc1-c1cc(C(=O)Nc2ccncc2F)nn1C` [Example 7, N-(3-Fluoro-pyridin-4-yl)-5-(2-methoxy-5-thiazol-2-yl-phenyl)-1-methyl-1H-pyrazole-3-carboxylic acid amide], for which, in assay [1], the inhibition at 10 µM was less than 50%. Besides, the 50% inhibitory concentration (IC50) in assay [2] is 0.5 to 1 µM.

On to `COc1ccc(-c2nccs2)cc1-c1cc(C(=O)Nc2c(F)cccc2F)nn1C` [Example 8, N-(2,6-Difluoro-phenyl)-5-(2-methoxy-5-thiazol-2-yl-phenyl)-1-methyl-1H-pyrazole-3-carboxylic acid amide], for which, in assay [1], the inhibition at 10 µM is more than 70%. In addition, the IC50 in assay [2] fell in the range of 0.5 to 1 µM.

As for `Cn1nc(C(=O)Nc2ccncc2F)cc1-c1cc(-c2nccs2)ccc1Cl` [Example 9, 5-(2-Chloro-5-thiazol-2-yl-phenyl)-N-(3-fluoro-pyridin-4-yl)-1-methyl-1H-pyrazole-3-carboxylic acid amide], the inhibition at 10 µM in assay [1] fell in the range of 50 to 70%. In addition, the IC50 in assay [2] is 1 to 5 µM.

On to `Cn1nc(C(=O)Nc2c(F)cccc2F)cc1-c1cc(-c2nccs2)ccc1Cl` [Example 10, 5-(2-Chloro-5-thiazol-2-yl-phenyl)-N-(2,6-difluoro-phenyl)-1-methyl-1H-pyrazole-3-carboxylic acid amide], for which the inhibition at 10 µM in assay [1] is less than 50%. In addition, the IC50 in assay [2] is less than 0.5 µM.

As to `Cc1ccc(-c2ccncc2)cc1-c1cc(C(=O)Nc2ccncc2F)nn1C` [Example 11, N-(3-Fluoro-pyridin-4-yl)-1-methyl-5-(2-methyl-5-pyridin-4-yl-phenyl)-1H-pyrazole-3-carboxylic acid amide], in assay [1], the inhibition at 10 µM is more than 70%. In addition, the IC50 in assay [2] is 1 to 5 µM.

On to `Cc1ccc(-c2ccncc2)cc1-c1cc(C(=O)Nc2c(F)cccc2F)nn1C` [Example 12, N-(2,6-Difluoro-phenyl)-1-methyl-5-(2-methyl-5-pyridin-4-yl-phenyl)-1H-pyrazole-3-carboxylic acid amide], for which, in assay [1], the inhibition at 10 µM was more than 70%. Further, the IC50 in assay [2] is less than 0.5 µM.

On to `Cc1ccc(-c2cncnc2)cc1-c1cc(C(=O)Nc2c(F)cccc2F)nn1C` [Example 13, N-(2,6-Difluoro-phenyl)-1-methyl-5-(2-methyl-5-pyrimidin-5-yl-phenyl)-1H-pyrazole-3-carboxylic acid amide], for which the inhibition at 10 µM in assay [1] is less than 50%. The IC50 in assay [2] is less than 0.5 µM.

For the compound `Cn1nc(C(=O)Nc2c(F)cccc2F)cc1-c1cccc(-c2nccs2)c1` [Example 14, N-(2,6-Difluoro-phenyl)-1-methyl-5-(3-thiazol-2-yl-phenyl)-1H-pyrazole-3-carboxylic acid amide], the inhibition at 10 µM in assay [1] is more than 70%. The IC50 in assay [2] was less than 0.5 µM.

For the compound `COc1ccc(C2CC2)cc1-c1cc(C(=O)Nc2ccncc2F)nn1C` [Example 15, 5-(5-Cyclopropyl-2-methoxy-phenyl)-N-(3-fluoro-pyridin-4-yl)-1-methyl-1H-pyrazole-3-carboxylic acid amide], the inhibition at 10 µM in assay [1] is more than 70%. The IC50 in assay [2] is 1 to 5 µM.

In the case of `COc1ccc(C2CC2)cc1-c1cc(C(=O)Nc2c(F)cccc2F)nn1C` [Example 16, 5-(5-Cyclopropyl-2-methoxy-phenyl)-N-(2,6-difluoro-phenyl)-1-methyl-1H-pyrazole-3-carboxylic acid amide], in assay [1], the inhibition at 10 µM was more than 70%. The IC50 in assay [2] is less than 0.5 µM.

`Cc1cnc(C2CC2)nc1-c1cc(C(=O)Nc2c(F)cccc2F)nn1C` [Example 17, 5-(2-Cyclopropyl-5-methyl-pyrimidin-4-yl)-N-(2,6-difluoro-phenyl)-1-methyl-1H-pyrazole-3-carboxylic acid amide]: the inhibition at 10 µM in assay [1] lay within 50 to 70%.

On to `Cc1ccc(-c2ncco2)cc1-c1cc(C(=O)Nc2c(F)cccc2F)nn1C` [Example 18, N-(2,6-Difluoro-phenyl)-1-methyl-5-(2-methyl-5-oxazol-2-yl-phenyl)-1H-pyrazole-3-carboxylic acid amide], for which the inhibition at 10 µM in assay [1] is less than 50%. Also, the IC50 in assay [2] was 0.5 to 1 µM.

As to `Cc1noc(-c2ccc(C)c(-c3cc(C(=O)Nc4c(F)cccc4F)nn3C)c2)n1` [Example 19, N-(2,6-Difluoro-phenyl)-1-methyl-5-[2-methyl-5-(3-methyl-[1,2,4]oxadiazol-5-yl)-phenyl]-1H-pyrazole-3-carboxylic acid amide], the inhibition at 10 µM in assay [1] is less than 50%. The IC50 in assay [2] was in the range of 1 to 5 µM.

For `Cc1ccc(C2CCOCC2)cc1-c1cc(C(=O)Nc2ccncc2F)nn1C` [Example 21, N-(3-Fluoro-pyridin-4-yl)-1-methyl-5-(2-methyl-5-tetrahydro-pyran-4-yl-phenyl)-1H-pyrazole-3-carboxylic acid amide], the inhibition at 10 µM in assay [1] lay in the range of 50 to 70%.

Regarding `Cc1c(C(=O)Nc2ccncc2F)nn(C)c1-c1cccc(-c2nccs2)c1` [Example 29, N-(3-Fluoro-pyridin-4-yl)-1,4-dimethyl-5-(3-thiazol-2-yl-phenyl)-1H-pyrazole-3-carboxylic acid amide], in assay [1], the inhibition at 10 µM is more than 70%.

Source of the values: US9206136B2, “Pyrazolyl-based carboxamides I” (Grünenthal GmbH, priority 2013, dated 2015).
